Results published in US6191124A, “Methanol derivatives for treatment of retroviral infections especially HIV infections” (priority 1997, dated 2001).
Like-named read-outs stand apart in the source and are kept apart here. Square brackets hold non-standard residues; d marks the D form. Peptide text beside a SMILES is read from it. * marks the point of attachment. Sta = CC(C)C[C@H](N)[C@@H](O)CC(=O)O; Isovaleryl = CC(C)CC(=O)*

What was measured:
[1] = test system: viral reverse transcriptase; settings: cited from earlier work
HIV infection / AIDS = settings: cited from earlier work
HIV-1 protease [2] = target: T1, HIV-1 protease (Human immunodeficiency virus type 1 group M subtype B, UniProt P04585); assay: HIV protease screening assay (fluorescently labeled biotinylated substrate, streptavidin beads), percent inhibition; type: biochemical; settings: for inhibition at 10 µM: read-out: % Protease Inhibition; for inhibition at 1.1 µM: read-out: Protease Inhibition, % Inhibition
Method: The HIV protease screening assay is based on fluorescently labeled substrate which can be resolved from nonlabeled cleavage product using special beads coated with streptavidin. The substrate is biotinylated at the amino terminal arginine and fluorescently labeled with fluorescein isothiocynate (FITC) at the carboxyl terminal lysine. This assay has been employed to detect novel, nonpeptidic inhibitors of HIV-1 protease. Substrate (20 μl of 0.2 μM), sample (10 μl of desired concentration), and enzyme (10 μl of 0.1 μM) are added to a 96 well pandex plate. The assay is run in 0.1 M sodium acetate buffer at pH 5.5 in the presence of 1.0 M sodium chloride and 0.05% NP-40 with incubated in the dark for one hour at room temperature. Strepavidin coated polystyrene beads {40 μl of 0.1% (w/v)} are added and the plate is incubated in the dark for an additional half hour. The labeled cleavage product is separated from the unreacted substrate via filtration and is read on the Idexx screen machine. The data are analyzed by appropriate computer algorithms to ascertain percent inhibition values.

HIV-1 protease [3] = target: T1, HIV-1 protease; assay: Determination of Ki values, HIV-1 protease; type: biochemical
Method: Determination of Ki values utilizes the same materials and equipment employed for percent inhibition studies. Two-fold serial dilutions are made for a given inhibitor from 2, 3 or 4 starting concentrations with a total of 24, 36 or 48 individual inhibitor concentrations. These dilutions are performed utilizing the BioMek robotics system. The assay consists of 10 μL or 40 nM HIV-1 protease, 10 μL of the various inhibitor concentrations, and 20 μL of 200 μM substrate (40 μL total). The reaction is allowed to proceed for 90 min at room temperature, terminated with 40 μL of avidin beads and processed (supra vide). An inhibitor with a known Ki is run in parallel to verify the validity of the assay. The data is processed utilizing a computer program employing a nonlinear least square analysis of the data to generate the Ki values.

HIV-1IIIB = HIV-1IIIB replication in human T-cell line H9 (p24 core antigen ELISA); type: cell-based; settings: human T-cell lines, e.g., H9, infected with HIV-1IIIB
Method: Several compounds of the present invention, such as 2,3-dimethyl-[…]-(2-phenylethyl)imidazo[2,1-b]thiazole-5-methanol were tested in known human cell lines, such as human T-cell lines, e.g., H9, which were infected with HIV-1IIIB. […] The H9 cell line was originally derived from the peripheral blood of a human lymphoma patient and extensively cloned so that the cells were highly susceptible to HIV infection. Virus-free H9 cells were maintained in a humidified 5% CO2 atmosphere at 37° C. in RPMI Complete (RC) medium, which was composed of RPMI 1640 supplemented with 10% heat-inactivated fetal calf serum (FCS), 10 mM Hepes, 2 mM L-glutamine, 100 μg/ml streptomycin, and 100 U/ml penicillin. H9 cultures were split 1:5 twice weekly for a maximum 12-15 times. […]
HIVIIIb 's ability to replicate efficiently in human T lymphoblastoid cell lines made this strain of HIV the logical choice for protease inhibitor screen. […] The titer, measured at the 50% Tissue Culture Infectious Dose (TCID50), was determined by the Reed-Muench method of statistical analysis to determine the 50% infectivity endpoint.
The standard acute infectivity assay for the evaluation of the inhibitors of HIV protease was performed in 96 well microplates. […] The amount of HIV p24 core antigen was quantified with an ELISA procedure by following the manufacturers directions (Coulter Diagnostics). […]

HIV-I protease = settings: cited from earlier work
HIV = settings: cited from earlier work
[4] = cited from earlier work
hepatic glycolysis = settings: cited from earlier work
[5] = Table 4, read-out: Protease Inhibition, Ki

Cc1cn([C@H]2C[C@H](N=[N+]=[N-])[C@@H](CO)O2)c(=O)[nH]c1=O [AZT, 3'-azido-3'-deoxy-thymidine]
inhibition of viral reverse transcriptase [1]: known inhibitor of viral reverse transcriptase
decrease of mortality and frequency of opportunistic infections (HIV infection / AIDS): shown to decrease the morality and frequency of opportunistic infections associated with AIDS

Cc1sc2ncc(C(O)CCCc3ccccc3)n2c1C (stereo not drawn) [Example 3, 2,3-Dimethyl-α-(3-phenylpropyl)imidazo-[2,1-b]thiazole-5-methanol]
% Protease Inhibition (HIV-1 protease [2]; 1.1-1.3 μM (Table 1)): 16%
% Protease Inhibition (HIV-1 protease [2]; 3.3-3.7 μM (Table 1)): 72%
inhibition at 10 µM (HIV-1 protease [2]): 115%
Ki (HIV-1 protease [3]; Table 1, read-out: Ki): 246 nM

Cc1sc2ncc(C(O)CCc3ccccc3)n2c1C (stereo not drawn) [Example 11, 2,3-Dimethyl-α-(2-phenylethyl)imidazo[2,1-b]thiazole-5-methanol]
inhibition of retroviral replication (HIV-1IIIB): found to inhibit retroviral replication
% Protease Inhibition (HIV-1 protease [2]; 1.1-1.3 μM (Table 1)): 96%
% Protease Inhibition (HIV-1 protease [2]; 3.3-3.7 μM (Table 1)): 109%
inhibition at 10 µM (HIV-1 protease [2]): 112%
Ki (HIV-1 protease [3]; Table 1, read-out: Ki): 120 nM

Cc1sc2ncc(C(O)/C=C/c3ccccc3)n2c1C (stereo not drawn) [Example 12, 2,3-Dimethyl-α-(2-phenylethenyl)imidazo[2,1-b]thiazole-5-methanol]
% Protease Inhibition (HIV-1 protease [2]; 1.1-1.3 μM (Table 1)): 63%
% Protease Inhibition (HIV-1 protease [2]; 3.3-3.7 μM (Table 1)): 103%
inhibition at 10 µM (HIV-1 protease [2]): 110%
Ki (HIV-1 protease [3]; Table 1, read-out: Ki): 567 ± 282 nM

OC(CCc1ccccc1)c1cnc2sc3c(n12)CCCC3 (stereo not drawn) [Example 14, 5,6,7,8-Tetrahydro-α-(2-phenylethyl)imidazo[2,1-b]benzothiazole-3-methanol]
inhibition at 1.1 µM (HIV-1 protease [2]): 73%
Ki (HIV-1 protease [3]; [5]): 68 ± 14 nM

OC(CCc1ccccc1)c1cnc2sc3c(n12)CCCCC3 (stereo not drawn) [Example 15, 6,7,8,9-Tetrahydro-α-(2-phenylethyl)-5H-cyclohept[d]imidazo[2,1-b]thiazole-3-methanol]
inhibition at 1.1 µM (HIV-1 protease [2]): 57%
Ki (HIV-1 protease [3]; [5]): 57 ± 14 nM

OC(CCCCc1ccccc1)c1cnc2sc3c(n12)CCCCC3 (stereo not drawn) [Example 16, 6,7,8,9-Tetrahydro-α-(4-phenylbutyl)-5-H-cyclohept[d]imidazo[2,1-b]thiazole-3-methanol]
inhibition at 1.1 µM (HIV-1 protease [2]): 54%
Ki (HIV-1 protease [3]; [5]): 227 ± 42 nM

OC(CCc1ccccc1)c1cnc2sc3c(n12)CCCCCC3 (stereo not drawn) [Example 17, 5,6,7,8,9,10-Hexahydro-α-(2-phenylethyl)cyclooct[d]imidazo-[2,1-b]thiazole-3-methanol]
inhibition at 1.1 µM (HIV-1 protease [2]): 62%
Ki (HIV-1 protease [3]; [5]): 72 ± 26 nM

CC(C)CC(=O)N[C@H](C(=O)N[C@H](C(=O)N[C@@H](CC(C)C)[C@@H](O)CC(=O)N[C@@H](C)C(=O)N[C@@H](CC(C)C)[C@@H](O)CC(=O)O)C(C)C)C(C)C [Pepstatin A] (Isovaleryl-VV[Sta]A[Sta]-OH)
inhibition of HIV-I protease (HIV-I protease): inhibitor of HIV-I protease

Nc1ccn([C@H]2CC[C@@H](CO)O2)c(=O)n1 [ddC]
activity against HIV in vitro (HIV): potent activity against HIV in vitro
limiting toxicity ([4]; humans, clinical): peripheral neuropathy which is reversible at low doses

O=c1[nH]cnc2c1ncn2[C@H]1CC[C@@H](CO)O1 [ddI]
stimulation of hepatic glycolysis (hepatic glycolysis): shown to stimulate hepatic glycolysis leading to irreversible liver damage
activity against HIV in vitro (HIV): potent activity against HIV in vitro
limiting toxicity ([4]; in vivo): peripheral neuropathy and pancreatitis
